Measured values published in patent US9241924B2, “Compositions of 5-ethyl-2-{4-[4-(4-tetrazol-1-yl-phenoxymethyl)-thiazol-2-yl]-piperidin-1-yl}-pyrimidine” (CYMABAY THERAPEUTICS, INC., priority 2010, dated 2016).
Values belong to the compound of their own block, whether it stands above or below them.

What was measured:
[1] = Phase 1 multiple ascending dose study, pharmacokinetics; format: in vivo; conditions: human, blood, po, repeat (5) daily doses, mean (±SD); for AUC(0-t): read-out: AUC0-24 h
Description: (§1) This is a single center, phase 1, double-blind, placebo-controlled, multiple ascending dose study of Compound A given orally as a reformulated tablet (spray dried dispersion, or SDD) to otherwise healthy subjects with “pre-diabetes” (impaired fasting glucose, impaired glucose tolerance, or HbA1C≧5.8), or diet-controlled type 2 diabetes mellitus. The study was designed to evaluate the safety, tolerability, pharmacokinetics (PK), and proof-of-concept pharmacodynamics of Compound A. Each dosing cohort consisted of a screening period to assess eligibility, a dosing and observational period, and a follow-up period.
The screening visit was used to assess preliminary eligibility in potential subjects who provided informed consent. Final eligibility for study enrollment was determined after check-in to the clinic on Day −3, before randomization and dosing (on Day 1). Eleven eligible subjects who successfully completed screening were enrolled into the lowest dose cohort that was yet to be filled, and randomly assigned in a double-blind fashion to receive Compound A (n=8) or matched placebo (n=3). Up to 4 additional subjects were admitted to the clinic and available as back-ups in the event that 1 of the original 11 subjects was not dosed for any reason.
Each of these study cohorts was enrolled and completed independently, and in sequential fashion. After completion of the inpatient observational period at Day 8, blinded clinical safety and laboratory parameters (including PK) were assessed in a teleconference between the Principal Investigator, or Sub-Investigator, and the Metabolex Medical Monitor, after which subject dosing assignments could have been unblinded, if necessary, for determination of dose-limiting toxicities (DLTs). If two dose-limiting toxicities (DLTs) occurred within the same treatment cohort in subjects receiving active drug, no further dose escalation would have been allowed, and the maximum tolerated dose (MTD) would have been defined by the dose in the previous cohort. Additionally, dosing may have been halted at the discretion of the sponsor depending on observed Compound A concentrations and PK parameters from the preceding cohort in context of the safety and pharmacodynamic profile of the preceding cohorts.
On Day −2, following a 10 hour overnight fast, up to 15 eligible subjects underwent a baseline MMTT administered between 9:30 and 10:15 am, for the assessment of glucose and insulin response and of total GLP-1 and glucagon. On Day −1, following a 10 hour overnight fast, up to 15 eligible subjects also underwent a baseline OGTT (75 g) administered at the identical time of day as the MMTT, for assessment of the same markers. After the baseline OGTT assessments, 11 subjects were enrolled and randomized into the current dosing cohort. Up to 4 additional subjects remained overnight to be available as back-ups in the event that 1 of the original 11 subjects was, for any reason, not dosed. If more than 11 eligible subjects meet the cohort requirements, the excess subjects may have been included in the next cohort check-in, if within the 35 day screening window and they continued to meet eligibility. On Days 1 through 5, following a 10 hour overnight fast, subjects received daily doses of Compound A or placebo exactly 2 hours earlier than the start of the baseline MMTT, under fasted conditions. The inpatient period in clinic began on Day −2 and concluded on Day 8, following the final inpatient study procedure. The following assessments were made in temporal relationship to the administration of the study drug, administered at Day 1, Time 0, unless otherwise stated: • Pharmacokinetic Blood and Urine Sampling: • Subjects randomized to Compound A or placebo underwent single dose (Day 1) and repeat dose (Day 4) PK. Compound A was measured pre-dose (t −30 and 0 min) on Day 1 and at 20 and 40 minutes, and 1, 2, 3, 4, 6, 8, 12, and 24 hours post-dose. […]

[2] = tested on: subjects with pre-diabetes; assay: Phase 1c study C, pharmacodynamics (MMTT/OGTT glucose excursion, fasting glucose); format: in vivo, human
Description: as §1
On Day −2, following a 10 hour overnight fast, up to 15 eligible subjects underwent a baseline MMTT administered between 9:30 and 10:15 am, for the assessment of glucose and insulin response and of total GLP-1 and glucagon. On Day −1, following a 10 hour overnight fast, up to 15 eligible subjects also underwent a baseline OGTT (75 g) administered at the identical time of day as the MMTT, for assessment of the same markers. […] Compound A was measured pre-dose (t −30 and 0 min) on Day 1 and at 20 and 40 minutes, and 1, 2, 3, 4, 6, 8, 12, and 24 hours post-dose. Compound A was measured at identical timepoints associated with the Day 4 dose, but included additional measurements at 48 and 72 hours post-dose (Day 7). […]

[3] = In vitro dissolution test in NaTC/POPC in PBS (pH 6.5); format: physicochemical; conditions: theoretical Cmax 200 μg/mL
Protocol: (§2) Samples were weighed, dissolved in the buffer system, centrifuged, and the supernatant analyzed by HPLC at 10, 20, 40, and 90 minutes.
(§3) Tables 7a and 7b and FIG. 6 compares in vitro dissolution performance of Compound A:CAP SDD with that of crystalline of Compound A, HPMCAS-MG, and HPMCAS-HG.

[4] = In vivo systemic exposure in male beagle dogs, oral dosing; conditions: dog; for AUC(0-t): read-out: AUC0-24 hr
Protocol: In vivo testing was performed in male dogs to compare the systemic exposure of the 25% Compound A:CAP SDD (n=2) to that of the crystalline Compound A (n=2).

[5] = In vitro dissolution of HPMCAS dispersions (Table 7b, simulated gastric fluid); format: physicochemical; conditions: dose 200 μg/mL, initial ninety minutes
Protocol: as §2, §3

[6] = Non-sink dissolution of melt extruded compositions in simulated fasted state intestinal fluid; format: physicochemical
Protocol: (§4) Solid dispersion formulations of Compound A in Eudragit® E PO (Formulation 2) and Kollidon® VA 64 (Formulation 3) were examined for dissolution behavior under non-sink conditions to assess oral bioavailability enhancement. Studies were conducted in three different media preparations, including: simulated gastric fluid, fed state simulated intestinal fluid and fasted state simulated intestinal fluid, which are presented in Table 2, Table 3 and Table 4 and FIG. 1, FIG. 2 and FIG. 3.

[7] = Non-sink dissolution of melt extruded compositions in simulated fed state intestinal fluid; format: physicochemical
Protocol: as §4

[8] = Non-sink dissolution of melt extruded formulations in simulated gastric fluid; format: physicochemical
Protocol: as §4

[9] = SDD tablet 25 mg orally once daily
[10] = SDD tablet 100 mg orally once daily
[11] = SDD tablets 300 mg orally once daily
[12] = SDD tablets 600 mg orally once daily

AUC(0-inf) [1, 9]: 6.5 µg·h/mL
Tmax [1, 9]: 5.4 h
half-life [1, 9]: 14 h
AUC(0-t) [1, 9]: 4.15 µg·h/mL
Cmax ([1]; SDD tablet 25 mg orally once daily, subjects with pre-diabetes): 346 ng/mL
AUC(0-inf) [1, 10]: 24.6 µg·h/mL
Cmax [1, 10]: 1150 ng/mL
Tmax [1, 10]: 2.8 h
half-life [1, 10]: 18.3 h
AUC(0-t) [1, 10]: 13.3 µg·h/mL
AUC(0-inf) [1, 11]: 45 µg·h/mL
Cmax [1, 11]: 2330 ng/mL
Tmax [1, 11]: 2.2 h
half-life [1, 11]: 15.3 h
AUC(0-t) [1, 11]: 30 µg·h/mL
Cmax [1, 12]: 3560 ng/mL
Tmax [1, 12]: 3.3 h
AUC(0-t) [1, 12]: 57.9 µg·h/mL
SMILES: CCc1cnc(N2CCC(c3nc(COc4ccc(-n5cnnn5)cc4)cs3)CC2)nc1 [Compound A, 5-ethyl-2-{4-[4-(4-tetrazol-1-yl-phenoxymethyl)-thiazol-2-yl]-piperidin-1-yl}-pyrimidine]
fasting plasma glucose (FPG) and glucose excursion following MMTT and OGTT ([2]; studies conducted to date): consistently lowered
reduction in glucose, net of placebo ([2]; subsets of subjects with the greatest degree of glucose intolerance at baseline, pooled, any dose, Phase 1c (study C)): up to 77%

AUC0-90 ([3]; NaTC/POPC in PBS pH 6.5, through 90 minutes): 950 µg·min/mL
Cmax (μg/mL Compound A) ([3]; NaTC/POPC in PBS pH 6.5, up to 90 min): 12 µg/mL
Cmax ([4]; 10 mg/kg orally): 560 ng/mL
AUC(0-t) ([4]; 10 mg/kg orally): 3.9 µg·h/mL
Cmax ([4]; 200 mg/kg orally): 2000 ng/mL
AUC(0-t) ([4]; 200 mg/kg orally): 17 µg·h/mL
AUC90 [5]: 1000 µg·min/mL
Cmax90 [5]: 8000 ng/mL
AUC0-2 hr [6]: 51.205 µg·h/mL
AUC0-4 hr [6]: 103.281 µg·h/mL
AUC0-24 hr [6]: 434.380 µg·h/mL
Cmax [6]: 29891 ng/mL
Tmax [6]: 0.50 h
AUC0-2 hr [7]: 100.045 µg·h/mL
AUC0-4 hr [7]: 211.597 µg·h/mL
AUC0-24 hr [7]: 1148.003 µg·h/mL
Cmax [7]: 60182 ng/mL
Tmax [7]: 2 h
AUC0-2 hr [8]: 321 µg·h/mL
AUC0-4 hr [8]: 727 µg·h/mL
AUC0-24 hr [8]: 4494 µg·h/mL
Cmax [8]: 247000 ng/mL
Tmax [8]: 2 h
SMILES: CCc1cnc(N2CCC(c3nc(COc4ccc(-n5cnnn5)cc4)cs3)CC2)nc1 [Compound A Crystalline, 5-ethyl-2-{4-[4-(4-tetrazol-1-yl-phenoxymethyl)-thiazol-2-yl]-piperidin-1-yl}-pyrimidine]
